According to patent publication US8765420B2, “Method for preparing pterocarpan” (priority 2010, dated 2014):

Target: T1, biphenyl dioxygenase of P. pseudoalcaligenes KF707 (SEQ ID NO:3) (Metapseudomonas furukawaii, UniProt Q52028)
T1 construct: expressed in transfected cells; host or cells: Escherichia coli JM109 (pJHF108)
Experiment: Biotransformation kinetics by whole cells of E. coli expressing biphenyl dioxygenase
Assay type: biochemical, Pseudomonas pseudoalcaligenes strain KF707
Details: for Corresponding epoxides produced after 5 h reaction: initial concentration of substrate 250 μM, whole cells of E. coli expressing BDO, 37° C., means of triplicate ± standard errors
Method: E. coli JM109 (pJHF108) was seed cultivated in 50 mL of LB medium containing ampicillin […] at 37° C. for 12 hours. The cultivated seed was inoculated to a 5-L fermentor (BioFlo 3000, Korea fermentor Co., Korea) containing 4.5 L of LB medium and […] of ampicillin, and mixed at 37° C. at 200 rpm for 8 hours. The culture broth was centrifuged at 8,000 g for 10 minutes using VS-21SMT centrifuge (Vision Scientific Co., Bucheon, Korea). Cells were washed three times with 100 mM minimal salt buffer and resuspended in the same buffer, adjusting to the optical density at 600 nm using a UV/visible spectrophotometer (Shimadzu, UV-1601PC, Kyoto, Japan).
Analytical HPLC was carried out using a Varian Prostar HPLC apparatus (Walnut Creek, Calif.) equipped with a photodiode array […] detector. For the analysis of isoflavan-4-ol stereoisomers and their metabolites, a Waters Spherisorb ODS-2 column ([…], 4.6 mm×25 cm, Milford, Mass.) was used. The mobile phase was operated as a linear gradient that made up of water-acetonitrile containing 0.1% formic acid (10% acetonitrile at 0 min, 40% acetonitrile at 15 min, 90% acetonitrile at 25 min, and 90% acetonitrile at 40 min). The flow rate was 1 mL/min and UV detection was performed at 270 nm. For the analysis of enantiomers of cis- and trans-isoflavan-4-ol, a Sumi Chiral OA-7000 column (5 mm, 4.6 mm×25 cm, Sumika Chemical Analysis Service, Ltd., Osaka, Japan) and mobile phase composed of 60:40 (v/v) of 20 mM phosphate buffer (pH 3.0) and acetonitrile were used. The flow rate was 1 mL/min and UV detection was performed at 270 nm.
Biotransformation kinetics by whole cells of E. coli expressing biphenyl dioxygenase was performed as follows. The bacterial culture was prepared as described above, resuspended in 50 mL of phosphate buffer containing 1 mM glucose in a 250 mL flask, and adjusted to a final culture concentration of OD 600 nm=0.6. Then, the bacterial culture was incubated with 250 μM each of four purified isoflavan-4-ol stereoisomers ((3S,4S)- and (3R,4R)-cis-isoflavan-4-ols and (3S,4R)- and (3R,4S)-trans-isoflavan-4-ols) on a rotary shaker (200 rpm) at 37° C. The bacterial cultures (2 mL) were extracted with ethyl acetate, and the solvent was evaporated to dryness as described above. Quantification of metabolites and parent compound by using HPLC with time was monitored in triplicate experiments. Due to the instability of metabolites which were produced from parent compound, the quantity was calculated from the peak area as compared to the standard curve of the parent compound.

T1 sequence (Q52028 whole entry M237T/S238T/M247I/H255Q/V258I/G268A/F277Y/M283S/M285L/D303E/T340I): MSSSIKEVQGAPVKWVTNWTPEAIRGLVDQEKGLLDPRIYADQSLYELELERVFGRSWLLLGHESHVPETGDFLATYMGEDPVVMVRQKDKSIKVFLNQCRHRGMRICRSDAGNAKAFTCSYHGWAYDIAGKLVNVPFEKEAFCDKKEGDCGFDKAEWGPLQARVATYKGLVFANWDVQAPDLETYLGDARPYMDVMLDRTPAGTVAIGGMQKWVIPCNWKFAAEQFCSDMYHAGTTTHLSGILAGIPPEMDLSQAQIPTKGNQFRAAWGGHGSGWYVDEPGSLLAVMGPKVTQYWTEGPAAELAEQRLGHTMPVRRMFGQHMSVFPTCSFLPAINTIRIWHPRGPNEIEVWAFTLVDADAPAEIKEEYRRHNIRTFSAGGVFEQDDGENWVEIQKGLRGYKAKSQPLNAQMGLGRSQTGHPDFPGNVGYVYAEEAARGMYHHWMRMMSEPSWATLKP

Structure (SMILES) | Corresponding epoxides produced after 5 h reaction [µM] | Corresponding epoxides produced after 5 h reaction (listed as Trans-isoflavan-4-ol (3R,4S)) [µM] | Corresponding epoxides produced after 5 h reaction (listed as Trans-isoflavan-4-ol (3S,4R)) [µM] | epoxide production relative to that from (3R,4R)-cis-isoflavan-4-ol (after 5 h of reaction)
O[C@H]1c2ccccc2OC[C@H]1c1ccccc1 (stereo in doubt) [(3R,4R)-cis-isoflavan-4-ol] | 40 ± 4.0 | – | – | –
O[C@@H]1c2ccccc2OC[C@H]1c1ccccc1 (stereo in doubt) [(3R,4S)-trans-isoflavan-4-ol] | 163.3 | 163.3 ± 6.8 | – | –
O[C@H]1c2ccccc2OC[C@@H]1c1ccccc1 (stereo in doubt) [(3S,4R)-trans-isoflavan-4-ol] | 141.1 | – | 141.1 ± 6.2 | –
O[C@@H]1c2ccccc2OC[C@@H]1c1ccccc1 (stereo in doubt) [(3S,4S)-cis-isoflavan-4-ol] | 194.8 ± 5.5 | – | – | about 4.8 fold
